The text below walks through data of patent publication US12344606B2, “Next-generation modulators of stimulator of interferon genes (STING)” (RYVU THERAPEUTICS S.A., priority 2019, dated 2025).

Test [1] relates to NF-κB pathway in THP-1 dual cells. Briefly: THP-1 Dual reporter assay, NF-κB pathway (SEAP). The class given is cell-based. The note with it: Homo sapiens, THP1-Dual; 18 h stimulation, absorbance; read-out: THP1 Dual EC50 (μM) NFkB. On the procedure:
(§1) Compounds of the present invention were tested for their activity using THP-1 dual cells (Invivogen, cat no. thpd-nfis) allowing for simultaneous study of NF-κB pathway and the interferon regulatory factor (IRF) pathway. THP-1 dual cells contain luciferase reporter gene under the control of an ISG54 (interferon-stimulated gene) minimal promoter in conjunction with five interferon-stimulated response elements and a secreted embryonic alkaline phosphatase reporter gene under the control an IFN (interferon)-β minimal promoter fused to five copies of the NF-κB consensus transcriptional response element with three copies of the c-Rel binding site. Following 18 h of stimulation with STING agonist, medium was collected and transferred onto fresh cell culture plate. To verify activity of the IRF pathway, luminescence activity was measured with standard laboratory plate reader immediately after addition 10 μl of the medium to 50 μl (or 40 μl) of luminescence reagent (Invivogen, cat. No. rep-qlc2). To verify activity of NF-κB pathway, 20 μl (or 10 μl) of the medium was mixed with 80 μl of a detection medium (Invivogen, cat. No. rep-qb2) and incubated for 2 hours (or 1 hour) at 37° C. in a humidified atmosphere containing 5% CO2. Next, absorbance at 630 nm (or 655 nm) was recorded using standard laboratory plate reader.
Background: A reporter such as luciferase makes a cellular process visible.

For test [2], the target named is human STING (Homo sapiens, UniProt Q86WV6). Briefly: Fluorescence Thermal Shift assay (hSTING FTS binding assay). The note with it: STING 0.1 mg/ml, 20 min preincubation, SyproOrange. On the procedure:
Compounds of the present invention were tested for binding to human STING in Fluorescence Thermal Shift assay. STING was preincubated with the compounds for 20 minutes in 50 mM Hepes, 150 mM NaCl, pH 7.5 in 16 μl volume, following by adding 4 μl of SyproOrange dye dilution (ThermoFisher, cat no. S-6651). Final STING concentration was 0.1 mg/ml. Thermal unfolding was performed in Real-Time PCR QuantStudio 6 Flex System (Applied Biosystems), from 25 to 99° C., with continuous ramp mode and ramp rate 0.033° C./s. The data were analyzed using Protein Thermal Shift Software (ThermoFisher).

For test [3], the system named is interferon regulatory factor (IRF) pathway in THP-1 dual cells. Briefly: THP-1 Dual reporter assay, IRF pathway (luciferase). The test is classed as cell-based. The note with it: Homo sapiens, THP1-Dual; 18 h stimulation, luminescence. On the procedure:
as §1

Where only a bound is given, the exact number is not on record here.

The EC50 is the concentration that produces a half-maximal response.

Sequence of human STING (Q86WV6 whole entry H232R): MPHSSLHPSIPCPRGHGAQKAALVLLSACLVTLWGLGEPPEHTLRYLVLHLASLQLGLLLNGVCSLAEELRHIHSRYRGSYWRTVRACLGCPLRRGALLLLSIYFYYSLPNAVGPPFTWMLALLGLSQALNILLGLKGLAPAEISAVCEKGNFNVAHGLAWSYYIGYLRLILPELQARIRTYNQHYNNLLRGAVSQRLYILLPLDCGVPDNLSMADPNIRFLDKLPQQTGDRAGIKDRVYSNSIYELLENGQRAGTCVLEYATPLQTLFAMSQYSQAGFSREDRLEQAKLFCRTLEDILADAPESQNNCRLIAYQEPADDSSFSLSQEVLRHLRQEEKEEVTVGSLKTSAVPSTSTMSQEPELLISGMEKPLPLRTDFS

Regarding `Cc1cc(CN(Cc2cn(C)c3ccccc3c2=O)C2CCCN(c3cccnc3)C2)ccn1` (stereo not drawn) [Example 2, 1-methyl-3-({[(2-methylpyridin-4-yl)methyl][1-(pyridin-3-yl)piperidin-3-yl]amino}methyl)-1,4-dihydroquinolin-4-one], the EC50 in test [1] and in test [3] was at most 1 µM each time. Also, the “hSTING FTS binding assay (ΔT C.°)” value in test [2] was “++ (ΔTm>10° C.)”.
As to `COc1cc(CN(Cc2cn(C)c3ccccc3c2=O)C2CCCN(c3cccnn3)C2)ccn1` (stereo not drawn) [Example 3, 3-({[(2-methoxypyridin-4-yl)methyl][1-(pyridazin-3-yl)piperidin-3-yl]amino}methyl)-1-methyl-1,4-dihydroquinolin-4-one], the EC50 in test [1] and in test [3] was at least 10 µM throughout. Further, the “hSTING FTS binding assay (ΔT C.°)” value in test [2] was “+ (ΔTm<10° C.)”.
Regarding `COc1cc(CN(Cc2cn(C)c3ccccc3c2=O)C2CCCN(c3cnccn3)C2)ccn1` (stereo not drawn) [Example 4, 3-({[(2-methoxypyridin-4-yl)methyl][1-(pyrazin-2-yl)piperidin-3-yl]amino}methyl)-1-methyl-1,4-dihydroquinolin-4-one], the EC50 in test [1] and in test [3] was 1 to 10 µM throughout. Moreover, the “hSTING FTS binding assay (ΔT C.°)” value in test [2] is “+ (ΔTm<10° C.)”.
Take `Cc1cc(CN(Cc2cn(C)c3ccccc3c2=O)[C@H]2CCCN(c3cccnc3)C2)ccn1` [Example 5, 1-methyl-3-({[(2-methylpyridin-4-yl)methyl][(3S)-1-(pyridin-3-yl)piperidin-3-yl]amino}methyl)-1,4-dihydroquinolin-4-one]: the EC50 in test [1] and in test [3] was at most 1 µM in each case. The “hSTING FTS binding assay (ΔT C.°)” value in test [2] was “++ (ΔTm>10° C.)”.
For the compound `COc1cc(CN(Cc2c[nH]c3ccccc3c2=O)[C@H]2CCCN(c3cccnc3)C2)ccn1` [Example 6, 3-({[(2-methoxypyridin-4-yl)methyl][(3S)-1-(pyridin-3-yl)piperidin-3-yl]amino}methyl)-1,4-dihydroquinolin-4-one], the EC50 in test [1] and in test [3] was at most 1 µM each time. In addition, the “hSTING FTS binding assay (ΔT C.°)” value in test [2] was “++ (ΔTm>10° C.)”.
For `Cc1ccc(N2CCC[C@H](N(Cc3ccnc(C)c3)Cc3cn(C)c4ccccc4c3=O)C2)cn1` [Example 7, 1-methyl-3-({[(3S)-1-(6-methylpyridin-3-yl)piperidin-3-yl][(2-methylpyridin-4-yl)methyl]amino}methyl)-1,4-dihydroquinolin-4-one], the EC50 in test [1] and in test [3] was at most 1 µM in each case.
For `COc1ncc(N2CCC[C@H](N(Cc3ccnc(C)c3)Cc3cn(C)c4ccccc4c3=O)C2)cn1` [Example 8, 3-({[(3S)-1-(2-methoxypyrimidin-5-yl)piperidin-3-yl][(2-methylpyridin-4-yl)methyl]amino}methyl)-1-methyl-1,4-dihydroquinolin-4-one], the EC50 in test [1] and in test [3] was at least 10 µM throughout. Further, the “hSTING FTS binding assay (ΔT C.°)” value in test [2] was “+ (ΔTm<10° C.)”.
Turning to `COc1cc(CN(Cc2cn(C3CC3)c3cc(N4CCN(C)CC4)c(F)cc3c2=O)[C@H]2CCCN(c3cccnc3)C2)ccn1` [Example 9, 1-cyclopropyl-6-fluoro-3-({[(2-methoxypyridin-4-yl)methyl][(3S)-1-(pyridin-3-yl)piperidin-3-yl]amino}methyl)-7-(4-methylpiperazin-1-yl)-1,4-dihydroquinolin-4-one], the EC50 in test [1] and in test [3] was at most 1 µM in each case. The “hSTING FTS binding assay (ΔT C.°)” value in test [2] is “++ (ΔTm>10° C.)”.
For `Cc1cc(CN(Cc2cn(C3CC3)c3cc(N4CCN(C)CC4)c(F)cc3c2=O)[C@H]2CCCN(c3cccnc3)C2)ccn1` [Example 10, 1-cyclopropyl-6-fluoro-7-(4-methylpiperazin-1-yl)-3-({[(2-methylpyridin-4-yl)methyl][(3S)-1-(pyridin-3-yl)piperidin-3-yl]amino}methyl)-1,4-dihydroquinolin-4-one], the EC50 in test [1] and in test [3] was at most 1 µM throughout. Further, in test [2], the “hSTING FTS binding assay (ΔT C.°)” value was “++ (ΔTm>10° C.)”.
As for `COc1cc(CN(Cc2cn(C3CC3)c3cc(F)c(F)cc3c2=O)[C@H]2CCCN(c3cccnc3)C2)ccn1` [Example 11, 1-cyclopropyl-6,7-difluoro-3-({[(2-methoxypyridin-4-yl)methyl][(3S)-1-(pyridin-3-yl)piperidin-3-yl]amino}methyl)-1,4-dihydroquinolin-4-one], the concentration giving a half-maximal response (EC50) in test [1] and in test [3] was at most 1 µM in each case. In test [2], the “hSTING FTS binding assay (ΔT C.°)” value is listed as “++ (ΔTm>10° C.)”.
For `Cc1cc(CN(Cc2cn(C)c3ccccc3c2=O)[C@H]2CCCN(c3cc(Cl)ncn3)C2)ccn1` [Example 17, 3-({[(3S)-1-(6-chloropyrimidin-4-yl)piperidin-3-yl][(2-methylpyridin-4-yl)methyl]amino}methyl)-1-methyl-1,4-dihydroquinolin-4-one], the EC50 in test [1] and in test [3] was 1 to 10 µM in each case.
Consider `Cc1cc(CN(Cc2cn(C)c3ccccc3c2=O)[C@H]2CCCN(c3ccnc(Cl)n3)C2)ccn1` [Example 19, 3-({[(3S)-1-(2-chloropyrimidin-4-yl)piperidin-3-yl][(2-methylpyridin-4-yl)methyl]amino}methyl)-1-methyl-1,4-dihydroquinolin-4-one], for which the “hSTING FTS binding assay (ΔT C.°)” value in test [2] is listed as “+ (ΔTm<10° C.)”.
As for `Cc1cc(CN(Cc2cn(C3CC3)c3cc(Cl)c(F)cc3c2=O)[C@H]2CCCN(c3cccnc3)C2)ccn1` [Example 33, 7-chloro-1-cyclopropyl-6-fluoro-3-({[(2-methylpyridin-4-yl)methyl][(3S)-1-(pyridin-3-yl)piperidin-3-yl]amino}methyl)-1,4-dihydroquinolin-4-one], the EC50 in test [1] and in test [3] was at most 1 µM each time.
As for `Cc1cc(CN(Cc2cn(C)c3ccccc3c2=O)[C@H]2CCCN(c3ccnc(Cl)n3)C2)ccn1` [Example 54, 3-({[(3S)-1-(2-chloropyrimidin-4-yl)piperidin-3-yl][(2-methylpyridin-4-yl)methyl]amino}methyl)-1-methyl-1,4-dihydroquinolin-4-one], the EC50 in test [1] and in test [3] was 1 to 10 µM in each case.
Turning to `Cc1ccc(N2CCC[C@H](N(Cc3ccnc(C)c3)Cc3cn(C4CC4)c4cc(C5=CCCCC5)c(F)cc4c3=O)C2)cn1` [Example 57, 7-(cyclohex-1-en-1-yl)-1-cyclopropyl-6-fluoro-3-({[(3S)-1-(6-methylpyridin-3-yl)piperidin-3-yl][(2-methylpyridin-4-yl)methyl]amino}methyl)-1,4-dihydroquinolin-4-one], the EC50 in test [1] and in test [3] was at most 1 µM each time.
Turning to `Cc1ccc(N2CCC[C@H](N(Cc3ccnc(C)c3)Cc3cn(C)c4c(Br)cccc4c3=O)C2)cn1` [Example 60, 8-bromo-1-methyl-3-({[(3S)-1-(6-methylpyridin-3-yl)piperidin-3-yl][(2-methylpyridin-4-yl)methyl]amino}methyl)-1,4-dihydroquinolin-4-one], the EC50 in test [1] and in test [3] was at most 1 µM each time.
In the case of `Cc1ccc(N2CCC[C@H](N(Cc3ccnc(C)c3)Cc3cn(C(C)C)c4nc(Cl)c(F)cc4c3=O)C2)cn1` [Example 61, 7-chloro-6-fluoro-3-({[(3S)-1-(6-methylpyridin-3-yl)piperidin-3-yl][(2-methylpyridin-4-yl)methyl]amino}methyl)-1-(propan-2-yl)-1,4-dihydro-1,8-naphthyridin-4-one], the EC50 in test [1] and in test [3] was at most 1 µM throughout.
On to `COc1nc2c(cc1F)c(=O)c(CN(Cc1ccnc(C)c1)[C@H]1CCCN(c3ccc(C)nc3)C1)cn2C(C)C` [Example 62, 6-fluoro-7-methoxy-3-({[(3S)-1-(6-methylpyridin-3-yl)piperidin-3-yl][(2-methylpyridin-4-yl)methyl]amino}methyl)-1-(propan-2-yl)-1,4-dihydro-1,8-naphthyridin-4-one], for which the half-maximal effective concentration (EC50) in test [1] and in test [3] was at most 1 µM throughout.
With `Cc1cc(CN(Cc2cn(C)c3ccccc3c2=O)[C@H]2CCCN(c3cccnc3)C2)n(C)n1` [Example 63, 3-({[(1,3-dimethyl-1H-pyrazol-5-yl)methyl][(3S)-1-(pyridin-3-yl)piperidin-3-yl]amino}methyl)-1-methyl-1,4-dihydroquinolin-4-one], the EC50 in test [1] is at least 10 µM; in test [3], 1 to 10 µM.
On to `Cc1ccc(N2CCC[C@H](N(Cc3ccnc(C)c3)Cc3cn(C4CC4)c4cc(C5COCCN5)ccc4c3=O)C2)cn1` (stereo partly drawn) [Example 64, 1-Cyclopropyl-3-({[(3S)-1-(6-methylpyridin-3-yl)piperidin-3-yl][(2-methylpyridin-4-yl)methyl]amino}methyl)-7-(morpholin-3-yl)-1,4-dihydroquinolin-4-one], for which the EC50 in test [1] and in test [3] was at most 1 µM in each case.
